Source: patent publication US20180362543A1, “HIV REPLICATION INHIBITOR” (Shionogi & Co., Ltd., priority 2013, published 2018)

What follows are molecules tested on HIV (HTLV-III B strain) (assay: HIV replication inhibition assay (MTT, MT-4 cells)). Settings: 4 days culture, concentration at which cell cytotoxicity by virus is inhibited 50%.
Type: cell-based
Method: HIV (HTLV-III B strain) persistent infected human T cell strain Molt-4 clone 8 was cultured in 10% Fetal Bovine Serum-containing RPMI-1640 medium and the supernatant was filtrated, then the virus titer was measured and the solution was stored at −80° C. Each anti-human immunodeficiency virus active substance was diluted with the above cultured medium to the designated concentration, which was dispensed into 96 well micro plate by 50 μL. Next, a MT-4 cell suspended liquid was dispensed by 100 μL (2.5×10^4 cells), then the above HIV-containing supernatant diluted with the above cultured medium was added thereto by 50 μL (60 pfu (plaque forming unit)).
The obtained mixture was cultured at 37° C. in CO2 incubator for four days, then 3-(4,5-dimehylthiazole-2-yl)-2,5-diphenyltetrazolynium bromide (MTT) 5 mg/mL in PBS was added to each well by 30 μL, followed by 1 hr-cultivation. In this step, as formazan was precipitated by reduction of MTT in living cells, the cell supernatant was removed from all well by 150 μL, then a 150 μL of solution (10% Triton X-100 and […]) was added thereto, followed by shaking with a plate mixer, to elute formazan. The formazan was measured with a microreader at OD: 560 nm and 690 nm (wavelength) and the result was compared with the reference. EC50 means the compound concentration at which cell cytotoxicity by virus is inhibited 50%.

In the case of `Cc1cc(Cl)ccc1-c1c(C)c2c(c(C)c1[C@H](OC(C)(C)C)C(=O)O)N(S(C)(=O)=O)Cc1c(F)ccc(F)c1-2` [Compound 317], the EC50 is reported as 70 nM.
For `Cc1cc(Cl)ccc1-c1c(C)c2c(c(C)c1[C@H](OC(C)(C)C)C(=O)O)N(S(C)(=O)=O)Cc1c(F)ccc(F)c1-2` [Compound 318], the EC50 was 17 nM.

Same assay, conditions: Human immunodeficiency virus 1, MT4, 96 h, 4 days culture, concentration at which cell cytotoxicity by virus is inhibited 50%

Going from `Cc1c(-c2c(C)c3c(c(C)c2[C@H](OC(C)(C)C)C(=O)O)N(S(C)(=O)=O)Cc2cc(F)cnc2-3)ccc2c1CCCO2` [Compound 320] to `Cc1c(-c2c(C)c3c(c(C)c2[C@H](OC(C)(C)C)C(=O)O)N(S(C)(=O)=O)Cc2cc(F)cnc2-3)ccc2c1NCCO2` [Compound 310], the EC50 rises from 3.1 nM to 25 nM (8.1-fold).

Compared with `Cc1ccc(-c2c(C)c3c(c(C)c2[C@H](OC(C)(C)C)C(=O)O)N(S(C)(=O)=O)Cc2oc(C)nc2-3)cc1` [Compound 305], `Cc1ccc(-c2c(C)c3c(c(C)c2[C@H](OC(C)(C)C)C(=O)O)N(S(C)(=O)=O)Cc2cc(Cl)ccc2-3)cc1` [Compound 301] is 5.7-fold lower in EC50: 28 nM for the first, 4.9 nM for the second. The second is the more potent here.

Going from `Cc1ccc(-c2c(C)c3c(c(C)c2[C@H](OC(C)(C)C)C(=O)O)N(S(C)(=O)=O)Cc2c(F)ccc(F)c2-3)c(F)c1` [Compound 304] to `Cc1c(-c2cc(F)c3c(c2F)CCCO3)c([C@H](OC(C)(C)C)C(=O)O)c(C)c2c1-c1c(F)ccc(F)c1CN2S(C)(=O)=O` [Compound 299], the EC50 rises from 5.2 nM to 26 nM (5-fold).

Going from `Cc1c([C@H](OC(C)(C)C)C(=O)O)c(-c2ccc3c(c2)CCCO3)c(C)c2c1ncc1ccsc12` [Compound 17] to `Cc1c2c3c(c(C(OC(C)(C)C)C(=O)O)c1-c1ccc4c(c1)CCCO4)CCCN3S(=O)(=O)N(Cc1ccccc1)C2` (centres unmarked) [Compound 79], the EC50 falls from 59 nM to 15 nM (3.9-fold). The second is the more potent here.

Compared with `Cc1ccc(-c2c(C)c3c(c(C)c2[C@H](OC(C)(C)C)C(=O)O)NC(=O)CCc2ccccc2-3)cc1` [Compound 42], `Cc1c(-c2c(C)c3c(c(C)c2[C@H](OC(C)(C)C)C(=O)O)N(S(C)(=O)=O)Cc2ccccc2-3)ccc2c1NCCO2` [Compound 300] is lower in EC50: 10 nM for the first, < 7.8 nM for the second.

Same assay, conditions: Human immunodeficiency virus 1, MT4, 96 h, Table A-2, four days

`Cc1ccc(-c2c(C)c3c(c(C)c2[C@H](OC(C)(C)C)C(=O)O)NC(=O)C2(CCC2)N3)cc1` [Compound 111] and `Cc1ccc(-c2c(C)c3c(c(C)c2[C@H](OC(C)(C)C)C(=O)O)NC(=O)C2(C[C@@H]4CC[C@H]2C4)N3)cc1` (some centres unmarked) [Compound 113] are within 1.5-fold of each other in EC50: 7.8 nM for the first, 8.6 nM for the second.

Going from `Cc1ccc(-c2c(C)c3c(c(C)c2[C@H](OC(C)(C)C)C(=O)O)NS(=O)(=O)Cc2cccc(C)c2-3)cc1` [Compound 125] to `Cc1ccc(-c2c(C)c3c(c(C)c2[C@H](OC(C)(C)C)C(=O)O)NS(=O)(=O)Cc2ccc(F)cc2-3)cc1` [Compound 95], the EC50 falls from 39 nM to 9.8 nM (4-fold).

Compared with `Cc1ccc(-c2c(C)c3c(c(C)c2[C@H](OC(C)(C)C)C(=O)O)N(S(C)(=O)=O)Cc2cc(C)ccc2-3)cc1` [Compound 115], `Cc1ccc(-c2c(C)c3c(c(C)c2[C@H](OC(C)(C)C)C(=O)O)NS(=O)(=O)N(C(c2ccccc2)c2ccccc2)CC3)cc1` [Compound 134] is 10-fold higher in EC50: 6 nM for the first, 62 nM for the second.

Same assay, conditions: Human immunodeficiency virus 1, MT4, 96 h, Table A-3, four days

Going from `Cc1ccc(-c2c(C)c3c(c(C)c2[C@H](OC(C)(C)C)C(=O)O)N(S(C)(=O)=O)Cc2cc4c(cc2-3)OCCCO4)cc1` [Compound 175] to `COc1cc(C)c2c(c1)CN(S(C)(=O)=O)c1c(C)c([C@H](OC(C)(C)C)C(=O)O)c(-c3ccc(C)cc3)c(C)c1-2` [Compound 162], the EC50 rises from 2.9 nM to 13 nM (4.5-fold). The first is the more potent here.

Compared with `Cc1ccc(-c2c(C)c3c(c(C)c2[C@H](OC(C)(C)C)C(=O)O)NS(=O)(=O)N(c2ccc(F)cc2)CC3)cc1` [Compound 171], `Cc1ccc(-c2c(C)c3c4c(c2C(OC(C)(C)C)C(=O)O)CCCN4S(=O)(=O)N(Cc2ccc(F)cc2)C3)cc1` (centres unmarked) [Compound 184] is 2.5-fold higher in EC50: 21 nM for the first, 53 nM for the second. The first is the more potent here.

Compared with `Cc1ccc(-c2c(C)c3c(c(C)c2[C@H](OC(C)(C)C)C(=O)O)NC(=O)N(C(c2ccccc2)c2ccccc2)CC3)cc1` [Compound 152], `Cc1ccc(-c2c([C@H](OC(C)(C)C)C(=O)O)c(C)c3nc(O)c4c(c3c2C)CCN(S(=O)(=O)c2ccc(F)cc2)C4)cc1` [Compound 153] is 2.9-fold higher in EC50: 16 nM for the first, 47 nM for the second.

Work on `Cc1ccc(-c2c(C)c3c(c(C)c2[C@H](OC(C)(C)C)C(=O)O)N(S(C)(=O)=O)Cc2c-3cccc2C(F)(F)F)cc1` [Compound 173] yielded an EC50 of 9.4 nM.

Same assay, conditions: Human immunodeficiency virus 1, MT4, 96 h, Table A-4, four days

First: Cc1c(-c2c(C)c3c(c(C)c2[C@H](OC(C)(C)C)C(=O)O)N(S(C)(=O)=O)Cc2cccc(F)c2-3)ccc2c1CCCO2 [Compound 224]
Second: Cc1ccc(-c2c(C)c3c(c(C)c2[C@H](OC(C)(C)C)C(=O)O)N(S(C)(=O)=O)Cc2c(F)cc(F)cc2-3)cc1 [Compound 228]
The EC50 of the first is 7.6-fold lower: 2.5 nM for the first, 19 nM for the second.

Compared with `COc1ccc2c(c1)c(O)nc1c(C)c([C@H](OC(C)(C)C)C(=O)O)c(-c3ccc(C)cc3)c(C)c12` [Compound 223], `Cc1ccc(-c2c([C@H](OC(C)(C)C)C(=O)O)c(C)c3nc(O)c4cc5c(cc4c3c2C)OCCO5)cc1` [Compound 232] is 2.8-fold lower in EC50: 34 nM for the first, 12 nM for the second.

Same assay, conditions: Human immunodeficiency virus 1, MT4, 96 h, Table A-5, four days

Compared with `Cc1c(-c2ccc3c4c(ccnc24)CCO3)c([C@H](OC(C)(C)C)C(=O)O)c(C)c2c1-c1c(F)cccc1CN2S(C)(=O)=O` [Compound 262], `Cc1c(-c2c(C)c3c(c(C)c2[C@H](OC(C)(C)C)C(=O)O)N(S(C)(=O)=O)Cc2cccc(F)c2-3)cc(F)c2c1CCCO2` [Compound 273] is 5.6-fold lower in EC50: 25 nM for the first, 4.5 nM for the second. The second is the more potent here.

`Cc1c(-c2ccc(F)cc2)c([C@H](OC(C)(C)C)C(=O)O)c(C)c2c1-c1c(F)cccc1CN2S(C)(=O)=O` [Compound 264] and `Cc1ccc(-c2c(C)c3c(c(C)c2[C@H](OC(C)(C)C)C(=O)O)N(S(C)(=O)=O)Cc2cc(F)cnc2-3)cc1` [Compound 284] are within 1.5-fold of each other in EC50: 19 nM for the first, 16 nM for the second.

`Cc1c(-c2ccc3c(c2Cl)NCCO3)c([C@H](OC(C)(C)C)C(=O)O)c(C)c2c1-c1c(F)ccc(F)c1CN2S(C)(=O)=O` [Compound 296] and `Cc1ccc2c(c1F)CN(S(C)(=O)=O)c1c(C)c([C@H](OC(C)(C)C)C(=O)O)c(-c3ccc4c(c3C)NCCO4)c(C)c1-2` [Compound 254] cannot be ordered by EC50: < 7.8 nM for the first, 3.1 nM for the second.

Same assay, conditions: Human immunodeficiency virus 1, MT4, 96 h, Table A-7, four days

First: Cc1ccc(-c2c(C)c3c(c(C)c2[C@H](OC(C)(C)C)C(=O)O)N(C(N)=O)Cc2c(F)ccc(F)c2-3)cc1 [Compound 335]
Second: Cc1c(-c2ccc(Cl)cc2O)c([C@H](OC(C)(C)C)C(=O)O)c(C)c2c1-c1c(F)cccc1CN2S(C)(=O)=O [Compound 324]
The EC50 of the first is 3.7-fold higher: 30 nM for the first, 8.1 nM for the second. The second is the more potent here.

Compared with `CCC(C)(C)O[C@H](C(=O)O)c1c(C)c2c(c(C)c1-c1ccc3c(c1C)NCCO3)-c1c(F)cccc1CN2S(C)(=O)=O` [Compound 351], `Cc1cccc2c1-c1c(C)c(-c3ccc4c(c3C)NCCO4)c([C@H](OC(C)(C)C)C(=O)O)c(C)c1N(S(C)(=O)=O)C2` [Compound 347] is 4.9-fold higher in EC50: 4.5 nM for the first, 22 nM for the second. The first is the more potent here.

Going from `Cc1ccc(-c2c(C)c3c(c(C)c2[C@H](OC(C)(C)C)C(=O)O)N(S(C)(=O)=O)Cc2cc(N)ncc2-3)c(C)c1` [Compound 330] to `Cc1ccc2c(c1)CN(S(C)(=O)=O)c1c(C)c([C@H](OC(C)(C)C)C(=O)O)c(-c3ccc4c(c3C)NCCO4)c(C)c1-2` [Compound 348], the EC50 falls from 53 nM to 2 nM (26-fold). The second is the more potent here.

Work on `Cc1c(-c2c(C)c3c(c(C)c2[C@H](OC(C)(C)C)C(=O)O)N(S(C)(=O)=O)[C@@H](C)c2cccnc2-3)ccc2c1NCCO2` [Compound 337] yielded an EC50 of 26 nM.

Same assay, conditions: Human immunodeficiency virus 1, MT4, 96 h, Table A-8 (continuation of Tables A-1 to A-9), four days

Compared with `Cc1ccc(-c2c(C)c3c(c(C)c2[C@H](OC(C)(C)C)C(=O)O)N(S(C)(=O)=O)Cc2cc(C)cnc2-3)c(O)c1` [Compound 382], `Cc1ccc(-c2c(C)c3c(c(C)c2[C@H](OC(C)(C)C)C(=O)O)N(S(C)(=O)=O)Cc2cc(C)cnc2-3)c(C)c1` [Compound 384] is 5.8-fold lower in EC50: 49 nM for the first, 8.4 nM for the second.

First: Cc1c(-c2c(C)c3c(c(C)c2[C@H](OC(C)(C)C)C(=O)O)N(S(C)(=O)=O)Cc2cccc(F)c2-3)ccc(Br)c1N [Compound 367]
Second: Cc1c(-c2ccc3c(c2)NCC3)c([C@H](OC(C)(C)C)C(=O)O)c(C)c2c1-c1c(F)cccc1CN2S(C)(=O)=O [Compound 363]
The EC50 of the first is 1.8-fold lower: 7.6 nM for the first, 14 nM for the second. The first is the more potent here.

Compared with `Cc1ccc2c(n1)CN(S(C)(=O)=O)c1c(C)c([C@H](OC(C)(C)C)C(=O)O)c(-c3ccc(Cl)cc3)c(C)c1-2` [Compound 380], `COc1cnc2c(c1)CN(S(C)(=O)=O)c1c(C)c([C@H](OC(C)(C)C)C(=O)O)c(-c3ccc(C)cc3)c(C)c1-2` [Compound 368] is 3.3-fold lower in EC50: 13 nM for the first, 3.9 nM for the second.

Compared with `Cc1ccc(-c2c(C)c3c(c(C)c2[C@H](OC(C)(C)C)C(=O)O)N(S(C)(=O)=O)Cc2cc(F)c(N(C)C)nc2-3)cc1` [Compound 398], `Cc1ccc(-c2c(C)c3c(c(C)c2[C@H](OC(C)(C)C)C(=O)O)N(S(C)(=O)=O)Cc2cc(C(F)(F)F)cnc2-3)cc1` [Compound 391] is 20-fold lower in EC50: 80 nM for the first, 4.1 nM for the second.

Same assay, conditions: Human immunodeficiency virus 1, MT4, 96 h, Table A-9, four days

In the case of `Cc1ccc(-c2c(C)c3c(c(C)c2[C@H](OC(C)(C)C)C(=O)O)N(S(C)(=O)=O)Cc2c(F)ncc(F)c2-3)cc1` [Compound 403], the EC50 is reported as 14.6 nM.

Same assay, conditions: Table A-2, four days

Going from `Cc1ccc(-c2c(C)c3c(c(C)c2[C@H](OC(C)(C)C)C(=O)O)NS(=O)(=O)Cc2c(F)cccc2-3)cc1` [Compound 123] to `Cc1ccc(-c2c(C)c3c(c(C)c2[C@H](OC(C)(C)C)C(=O)O)NS(=O)(=O)Cc2cc(C)ccc2-3)cc1` [Compound 117], the EC50 falls from 89 nM to 19 nM (4.7-fold). The second is the more potent here.
